Assay results from US9051296B2, “Aryl carboxamide derivatives as TTX-S blockers” (RaQualia Pharma Inc., priority 2009, dated 2015).
Read-outs that look alike come from different tables or passages of the source.

Columns and labels:
human Nav1.7 channels = target: T1, human Nav1.7 channels (Homo sapiens, UniProt Q15858); assay: FRET Assay (Method A), human Nav1.7; assay type: cell-based
T1 construct: expressed in transfected cells; host or cells: CHO
Method: (§1) The ability of the aryl substituted carboxamid derivatives of the formula (I) to inhibit the NaV1.3, Nav1.7 and Nav1.5 channels was measured by Fluorescence Resonance Energy Transfer (FRET) assay and electrophysiology assay described below.
(§2) This screen was used to determine the effects of compounds on human NaV1.3, human Nav1.7, and human Nav1.5 channels, utilising the cell imaging technology by Hamamatsu Photonics's Functional Drug Screening System (FDSS). The change of membrane potential was monitored with fluorescent membrane potential dye pair, oxonol (DiSBAC2(3)) and coumarin (CC2-DMPE), using FRET technology.
CHO cells expressing human NaV1.7 channels were grown in T225 flasks, in a 5% CO2 humidified incubator to about 80% confluence. Media composition consisted of HAM/F12 with Glutamax I, 10% FCS, 100 units/ml Penicillin and 100 microgram/ml Hygromycin.
Protocol: • Seeded each cell lines (1.5×10^4 cells/well) into poly-D-lysine coated 384-well plates prior to experimentation. • Incubated at 37° C. in 5% CO2 for 24 hours. • Washed each well with buffer #1 (140 mM NaCl, 4.5 mM KCl, 10 mM D-Glucose, 2 mM CaCl2, 1 mM MgCl2, 10 mM HEPES, pH 7.4 adjusted with NaOH) twice. • Added 1st loading solution containing 5 microM CC2-DMPE and 0.02% Pluronic F-127 in buffer #1. • Incubated the plate at room temperature in dark for 0.5 hours. • Washed each well with buffer #2 (160 mM Choline, 10 mM D-Glucose, 0.1 mM CaCl2, 1 mM MgCl2, 10 mM HEPES, pH 7.4 adjusted with KOH) twice. • Added 2nd loading solution containing 15 microM DiSBAC2(3), 0.5 mM VABSC-1, 10 microM veratridine and 0.004% Pluronic F-127 in buffer #2. • Added compound solutions into the assay plate for 30 minutes under the dark at room temperature. • Measured the activity by FDSS.
(§3) The data were analyzed and reported as normalized ratios of intensities measured in the 465 nm and 575 nm channels. […]
(§4) “FI465B”=the mean of fluorescence intensity as baseline (before Na+ ligand addition) at 465 nm
“FI575B”=the mean of fluorescence intensity as baseline (before Na+ ligand addition) at 575 nm […]

Human HERG = target: T2, Human HERG (Homo sapiens, UniProt Q12809); assay: Human dofetilide binding assay
T2 construct: expressed in transfected cells; host or cells: HEK293S (membrane homogenate)
Method: Human Dofetilide Binding Assay
Human HERG transfected HEK293S cells were prepared and grown in-house. The collected cells were suspended in 50 mM Tris-HCl (pH 7.4 at 4° C.) and homogenized using a hand held Polytron PT 1200 disruptor set at full power for 20 sec on ice. The homogenates were centrifuged at 48,000×g at 4° C. for 20 min. The pellets were then resuspended, homogenized, and centrifuged once more in the same manner. The final pellets were resuspended in an appropriate volume of 50 mM Tris-HCl, 10 mM KCl, 1 mM MgCl2 (pH 7.4 at 4° C.), homogenized, aliquoted and stored at −80° C. until use. An aliquot of membrane fractions was used for protein concentration determination using BCA protein assay kit (PIERCE) and ARVOsx plate reader (Wallac). Binding assays were conducted in a total volume of 30 microL in 384-well plates. The activity was measured by PHERAstar (BMG LABTECH) using fluorescence polarization technology. Ten microL of test compounds were incubated with 10 microL of fluorescence ligand (6 nM Cy3B tagged dofetilide derivative) and 10 microL of membrane homogenate (6 microg protein) for 120 minutes at room temperature. Nonspecific binding was determined by 10 microM E4031 at the final concentration.

human NaV1.3 channels = target: T3, human NaV1.3 channels (Homo sapiens, UniProt Q9NY46); assay: FRET Assay (Method A), human NaV1.3; assay type: cell-based; details: read-out: against Nav1.3 in FRET Assay (Method A)
T3 construct: expressed in transfected cells; host or cells: HEK293
Method: as §1
as §2, with “technology. […]” for “technology.”
as §3, §4
“FI575B”=the mean of fluorescence intensity as baseline (before Na+ ligand addition) at 575 nm
“FI465Max”=maximum fluorescence intensity at 465 nm after Na+ stimulation
“FI575 Min”=minimum fluorescence intensity at 575 nm after Na+ stimulation
This analysis was performed using a computerized specific program designed for FDSS generated data. Fluorescence ratio values were plotted using XLfit to determine an IC50 value for each compound.

[1] = Table 5, method A or B not stated, read-out: IC50 in the Nav1.7 FRET Assay

T1 sequence (Q15858 whole entry): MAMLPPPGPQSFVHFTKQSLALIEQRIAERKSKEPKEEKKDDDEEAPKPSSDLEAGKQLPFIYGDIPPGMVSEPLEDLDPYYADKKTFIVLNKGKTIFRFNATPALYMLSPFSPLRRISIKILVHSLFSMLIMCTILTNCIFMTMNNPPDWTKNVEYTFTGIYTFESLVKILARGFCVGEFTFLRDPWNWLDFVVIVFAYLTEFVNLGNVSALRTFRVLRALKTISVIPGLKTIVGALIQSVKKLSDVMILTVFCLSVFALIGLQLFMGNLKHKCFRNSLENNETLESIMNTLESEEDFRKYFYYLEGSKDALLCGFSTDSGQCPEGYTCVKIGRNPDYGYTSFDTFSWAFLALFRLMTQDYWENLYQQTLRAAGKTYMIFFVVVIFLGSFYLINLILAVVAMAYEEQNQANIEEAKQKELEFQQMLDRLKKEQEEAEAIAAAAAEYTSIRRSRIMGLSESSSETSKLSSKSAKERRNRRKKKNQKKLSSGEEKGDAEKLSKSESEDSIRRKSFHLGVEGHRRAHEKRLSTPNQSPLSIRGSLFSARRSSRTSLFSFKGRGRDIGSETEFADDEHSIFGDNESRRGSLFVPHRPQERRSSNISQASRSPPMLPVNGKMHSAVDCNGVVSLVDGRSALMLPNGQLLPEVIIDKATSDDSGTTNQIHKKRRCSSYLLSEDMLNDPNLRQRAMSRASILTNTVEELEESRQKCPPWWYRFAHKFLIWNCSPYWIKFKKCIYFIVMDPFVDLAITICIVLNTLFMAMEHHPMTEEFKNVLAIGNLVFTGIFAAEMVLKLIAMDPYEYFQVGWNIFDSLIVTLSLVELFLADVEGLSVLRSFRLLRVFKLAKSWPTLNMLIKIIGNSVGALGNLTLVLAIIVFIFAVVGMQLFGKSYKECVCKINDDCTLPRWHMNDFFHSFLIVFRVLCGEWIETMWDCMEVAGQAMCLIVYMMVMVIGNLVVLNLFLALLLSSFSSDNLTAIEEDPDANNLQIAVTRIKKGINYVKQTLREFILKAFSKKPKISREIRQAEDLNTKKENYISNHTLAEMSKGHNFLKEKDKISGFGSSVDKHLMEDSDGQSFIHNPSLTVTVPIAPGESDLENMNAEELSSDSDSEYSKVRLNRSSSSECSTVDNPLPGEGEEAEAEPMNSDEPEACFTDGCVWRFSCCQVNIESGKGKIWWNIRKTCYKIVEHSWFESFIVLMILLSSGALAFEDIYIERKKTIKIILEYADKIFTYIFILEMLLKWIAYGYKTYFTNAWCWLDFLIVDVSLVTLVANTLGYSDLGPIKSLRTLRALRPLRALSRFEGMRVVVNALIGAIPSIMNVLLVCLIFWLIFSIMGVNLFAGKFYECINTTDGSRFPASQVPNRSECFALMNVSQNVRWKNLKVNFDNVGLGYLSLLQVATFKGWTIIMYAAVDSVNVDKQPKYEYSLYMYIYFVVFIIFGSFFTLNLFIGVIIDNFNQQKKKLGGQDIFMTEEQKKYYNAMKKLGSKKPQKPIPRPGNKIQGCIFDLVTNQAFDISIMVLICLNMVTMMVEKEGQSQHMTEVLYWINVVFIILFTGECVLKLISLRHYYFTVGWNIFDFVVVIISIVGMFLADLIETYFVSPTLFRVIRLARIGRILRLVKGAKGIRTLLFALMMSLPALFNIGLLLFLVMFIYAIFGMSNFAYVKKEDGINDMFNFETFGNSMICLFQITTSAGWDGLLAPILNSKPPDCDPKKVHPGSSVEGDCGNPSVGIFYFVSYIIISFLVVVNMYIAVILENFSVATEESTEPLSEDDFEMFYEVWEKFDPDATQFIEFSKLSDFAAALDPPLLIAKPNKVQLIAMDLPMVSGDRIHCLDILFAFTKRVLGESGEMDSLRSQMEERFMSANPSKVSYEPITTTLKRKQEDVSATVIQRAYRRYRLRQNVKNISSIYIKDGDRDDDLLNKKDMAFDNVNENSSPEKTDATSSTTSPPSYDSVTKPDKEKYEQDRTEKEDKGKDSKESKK
T2 sequence (Q12809 whole entry): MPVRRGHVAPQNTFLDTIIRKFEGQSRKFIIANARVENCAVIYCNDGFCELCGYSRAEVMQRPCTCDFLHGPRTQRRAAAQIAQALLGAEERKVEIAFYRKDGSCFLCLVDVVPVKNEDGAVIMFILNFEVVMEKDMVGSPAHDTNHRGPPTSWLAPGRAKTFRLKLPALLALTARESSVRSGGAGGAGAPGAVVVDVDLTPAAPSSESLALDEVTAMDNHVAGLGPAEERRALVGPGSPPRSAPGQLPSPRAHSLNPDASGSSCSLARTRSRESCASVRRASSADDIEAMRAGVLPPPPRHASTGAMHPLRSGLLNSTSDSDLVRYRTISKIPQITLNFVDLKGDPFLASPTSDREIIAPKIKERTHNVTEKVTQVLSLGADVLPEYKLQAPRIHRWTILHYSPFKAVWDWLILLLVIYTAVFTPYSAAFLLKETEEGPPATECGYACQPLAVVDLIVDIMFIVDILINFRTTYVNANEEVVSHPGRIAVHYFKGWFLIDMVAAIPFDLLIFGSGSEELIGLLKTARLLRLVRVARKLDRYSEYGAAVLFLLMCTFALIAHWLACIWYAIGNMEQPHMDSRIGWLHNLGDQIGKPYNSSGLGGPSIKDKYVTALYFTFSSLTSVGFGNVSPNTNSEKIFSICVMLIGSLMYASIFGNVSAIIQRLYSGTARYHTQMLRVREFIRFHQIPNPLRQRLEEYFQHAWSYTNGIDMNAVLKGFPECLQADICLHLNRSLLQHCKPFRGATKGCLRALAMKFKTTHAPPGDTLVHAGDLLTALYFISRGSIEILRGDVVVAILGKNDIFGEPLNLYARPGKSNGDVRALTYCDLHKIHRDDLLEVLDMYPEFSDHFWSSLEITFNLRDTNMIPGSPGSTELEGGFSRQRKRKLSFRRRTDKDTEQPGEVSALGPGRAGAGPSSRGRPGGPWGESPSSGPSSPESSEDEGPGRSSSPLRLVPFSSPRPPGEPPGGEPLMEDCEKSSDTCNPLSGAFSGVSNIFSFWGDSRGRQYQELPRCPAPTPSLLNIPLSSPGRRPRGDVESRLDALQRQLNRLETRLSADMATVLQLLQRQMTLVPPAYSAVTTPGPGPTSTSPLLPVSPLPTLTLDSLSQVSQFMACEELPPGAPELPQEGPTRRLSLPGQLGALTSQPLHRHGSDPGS
T3 sequence (Q9NY46 whole entry): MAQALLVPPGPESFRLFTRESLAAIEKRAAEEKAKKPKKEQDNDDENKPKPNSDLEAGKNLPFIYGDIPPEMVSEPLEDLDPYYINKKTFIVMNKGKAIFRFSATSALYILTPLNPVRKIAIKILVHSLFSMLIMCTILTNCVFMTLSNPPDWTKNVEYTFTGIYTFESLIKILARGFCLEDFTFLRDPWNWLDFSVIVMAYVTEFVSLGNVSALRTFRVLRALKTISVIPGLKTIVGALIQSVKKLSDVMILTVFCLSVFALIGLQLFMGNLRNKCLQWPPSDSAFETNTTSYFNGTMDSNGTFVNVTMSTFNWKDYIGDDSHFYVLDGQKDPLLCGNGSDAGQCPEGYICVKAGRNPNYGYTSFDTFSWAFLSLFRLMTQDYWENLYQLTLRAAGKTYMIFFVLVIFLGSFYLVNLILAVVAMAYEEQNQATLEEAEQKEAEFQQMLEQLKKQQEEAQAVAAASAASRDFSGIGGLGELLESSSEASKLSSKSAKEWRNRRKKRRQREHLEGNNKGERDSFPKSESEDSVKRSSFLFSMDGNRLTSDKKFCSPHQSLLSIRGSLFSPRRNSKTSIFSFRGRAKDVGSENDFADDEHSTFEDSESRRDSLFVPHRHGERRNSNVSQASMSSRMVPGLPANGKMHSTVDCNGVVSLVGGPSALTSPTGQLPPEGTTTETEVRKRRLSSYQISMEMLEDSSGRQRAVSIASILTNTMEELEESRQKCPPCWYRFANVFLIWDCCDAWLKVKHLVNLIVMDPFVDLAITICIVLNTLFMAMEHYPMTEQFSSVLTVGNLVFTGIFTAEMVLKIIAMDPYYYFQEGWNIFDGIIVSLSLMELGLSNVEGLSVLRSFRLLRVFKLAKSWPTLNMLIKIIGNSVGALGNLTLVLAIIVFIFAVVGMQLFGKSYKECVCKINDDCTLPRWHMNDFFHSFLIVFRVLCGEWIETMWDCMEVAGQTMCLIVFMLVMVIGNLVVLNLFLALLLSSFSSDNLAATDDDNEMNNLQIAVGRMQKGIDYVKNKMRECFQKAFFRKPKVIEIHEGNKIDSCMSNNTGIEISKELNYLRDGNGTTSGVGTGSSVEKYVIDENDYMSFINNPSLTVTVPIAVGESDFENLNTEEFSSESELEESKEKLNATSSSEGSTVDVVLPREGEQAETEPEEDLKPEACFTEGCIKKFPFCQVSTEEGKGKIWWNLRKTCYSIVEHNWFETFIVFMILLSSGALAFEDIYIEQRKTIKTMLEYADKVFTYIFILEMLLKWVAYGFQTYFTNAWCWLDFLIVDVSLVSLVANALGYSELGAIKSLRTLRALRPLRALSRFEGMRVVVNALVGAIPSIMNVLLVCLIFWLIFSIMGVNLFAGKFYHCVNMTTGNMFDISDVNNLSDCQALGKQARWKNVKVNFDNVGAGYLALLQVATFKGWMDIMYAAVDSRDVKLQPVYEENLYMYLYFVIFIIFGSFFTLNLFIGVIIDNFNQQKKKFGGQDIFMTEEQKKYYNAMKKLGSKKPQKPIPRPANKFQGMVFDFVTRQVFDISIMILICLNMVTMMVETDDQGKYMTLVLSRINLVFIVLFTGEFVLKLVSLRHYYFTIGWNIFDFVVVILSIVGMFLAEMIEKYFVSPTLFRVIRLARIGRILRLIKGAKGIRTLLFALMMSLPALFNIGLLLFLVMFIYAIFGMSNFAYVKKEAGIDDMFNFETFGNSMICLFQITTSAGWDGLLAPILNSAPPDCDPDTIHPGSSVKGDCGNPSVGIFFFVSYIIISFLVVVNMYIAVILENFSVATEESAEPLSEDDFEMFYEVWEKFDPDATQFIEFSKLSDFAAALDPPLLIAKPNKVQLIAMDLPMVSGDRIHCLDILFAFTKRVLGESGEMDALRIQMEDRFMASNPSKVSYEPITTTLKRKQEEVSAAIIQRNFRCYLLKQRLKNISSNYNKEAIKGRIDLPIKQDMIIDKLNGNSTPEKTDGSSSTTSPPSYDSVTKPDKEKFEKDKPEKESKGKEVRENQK

Row | IC50 (human Nav1.7 channels; [1]) | IC50 (human NaV1.3 channels) | IC50 (human Nav1.7 channels; read-out: against Nav1.7 in FRET Assay (Method A)) | Compound | IC50 (Human HERG)
1 | 360 nM |  |  | O=C(c1cnc2ccccc2c1)N1CCC(Oc2ccc(Cl)cc2)CC1 [Example 10, (4-(4-chlorophenoxy)piperidin-1-yl)(quinolin-3-yl) methanone] | 7910 nM
2 |  | > 30000 nM | 15000 nM | O=c1[nH]ccnc1CN1CCC(COc2ccccc2)CC1 [Example 198 in WO 2003/084948, 3-((4-(phenoxymethyl)piperidin-1-yl)methyl)pyrazin-2(1H)-one, reference compound] | 
3 | 470 nM |  |  | Clc1ccc(OC2CCN(Cc3cnc4ccccc4c3)CC2)cc1 [Example 726] | 280 nM
